Assay in all cases: Dundee protein kinase screen
What all share (assay type): biochemical

One assay has as its target MLK1 (Homo sapiens, UniProt P80192). Conditions: MLK1, 1µM; read-out: %Remaining activity at 1µM NU6300. The procedure:
(§1) Prior to determining its cellular activity, we carried out a screen to assess its selectivity against a panel of 131 protein kinases under conditions that would not distinguish between a reversible or irreversible mode of action. […] These 13 kinases and 29 additional kinases, selected for their known sensitivity to other inhibitors within the purine series, were then tested in a modified screening format in which the assay was repeated following a 4-hr pre-incubation (Table S3B). […] However, conformational flexibility around the active site may promote such an interaction with a residue from another part of the structure ([Martin et al., 2012]).
(§2) Table S3, Related to Figure 4. NCL-0006300 protein kinase selectivity. (A) NU6300 was tested at a single concentration of 1µM against 131 protein kinases present in a Dundee protein kinase screen (Bain et al., 2007). Values given are % activity remaining and are the average of duplicate measurements: 0-25% (red), 26-50% (yellow), 51-80% (black) and above 81% (green). The kinase domain sequences (as defined by UniProt) of […]
(§3) have a lysine residue at a position close to CDK2 Lys88 or Lys89. However, in the structure of tyrosine-protein kinase BTK (PDB ID: 3GEN) the residue equivalent to CDK2 Asp86 is Cys481 and therefore there is the potential for a covalent adduct to be formed through this side chain. […]

The target in another assay is EF2K (Homo sapiens, UniProt O00418). Conditions: read-out: %Remaining activity at 1µM NU6300. The procedure:
as §1, §2, §3

For the next assay, the target named is GCK (Homo sapiens, UniProt Q12851). Conditions: read-out: %Remaining activity at 1µM NU6300. On the procedure:
as §1, §2, §3

For another assay, the target named is MKK1 (Homo sapiens, UniProt Q02750). Conditions: MKK1, 1µM; read-out: %Remaining activity at 1µM NU6300. The procedure:
as §1, §2, §3

Another assay concerns AMPK. The procedure: as §1, §2, §3
The target of the next assay is CAMK1 (Homo sapiens, UniProt Q14012). Conditions: CAMK1, 1µM; read-out: %Remaining activity at 1µM NU6300. The procedure: as §1, §2, §3
The target in the next assay is LKB1 (Homo sapiens, UniProt Q15831). Conditions: LKB1, 1µM; read-out: %Remaining activity at 1µM NU6300. The procedure: as §1, §2, §3
Sequence of LKB1 (Q15831 whole entry): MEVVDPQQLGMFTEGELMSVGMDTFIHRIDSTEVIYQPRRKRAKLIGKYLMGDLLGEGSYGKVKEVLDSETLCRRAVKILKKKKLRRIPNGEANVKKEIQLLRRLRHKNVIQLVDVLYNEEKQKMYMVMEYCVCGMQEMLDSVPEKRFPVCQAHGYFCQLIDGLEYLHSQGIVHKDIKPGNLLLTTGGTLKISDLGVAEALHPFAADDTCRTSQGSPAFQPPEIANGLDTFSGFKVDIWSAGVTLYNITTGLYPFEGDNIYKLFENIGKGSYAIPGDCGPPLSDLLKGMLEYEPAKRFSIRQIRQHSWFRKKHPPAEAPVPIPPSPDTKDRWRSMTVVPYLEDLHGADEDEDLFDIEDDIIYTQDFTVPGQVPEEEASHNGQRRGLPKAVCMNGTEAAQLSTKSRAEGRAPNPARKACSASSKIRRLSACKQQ
Sequence of LKB1 (Q7RTN6 whole entry partner): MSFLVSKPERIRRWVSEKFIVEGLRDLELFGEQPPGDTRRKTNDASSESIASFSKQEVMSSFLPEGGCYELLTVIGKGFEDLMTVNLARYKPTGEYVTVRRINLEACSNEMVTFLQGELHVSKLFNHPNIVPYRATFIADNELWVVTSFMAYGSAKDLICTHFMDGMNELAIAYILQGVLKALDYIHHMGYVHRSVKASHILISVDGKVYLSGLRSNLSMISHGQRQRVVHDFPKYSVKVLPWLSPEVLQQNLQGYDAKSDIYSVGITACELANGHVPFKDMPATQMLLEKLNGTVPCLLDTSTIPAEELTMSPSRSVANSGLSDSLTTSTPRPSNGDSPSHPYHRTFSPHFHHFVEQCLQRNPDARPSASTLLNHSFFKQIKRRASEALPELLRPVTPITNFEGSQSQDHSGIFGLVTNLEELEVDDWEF
Sequence of LKB1 (Q9Y376 whole entry partner): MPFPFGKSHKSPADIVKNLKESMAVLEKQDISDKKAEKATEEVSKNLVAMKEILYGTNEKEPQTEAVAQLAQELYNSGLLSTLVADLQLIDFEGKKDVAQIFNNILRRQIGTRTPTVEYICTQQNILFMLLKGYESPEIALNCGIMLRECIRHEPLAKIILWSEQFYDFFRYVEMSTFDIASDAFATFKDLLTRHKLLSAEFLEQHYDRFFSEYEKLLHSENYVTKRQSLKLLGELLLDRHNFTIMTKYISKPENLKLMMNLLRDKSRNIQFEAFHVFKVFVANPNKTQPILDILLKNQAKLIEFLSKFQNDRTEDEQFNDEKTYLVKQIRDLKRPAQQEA
The next assay concerns the target IKKe (Homo sapiens, UniProt Q14164). Conditions: read-out: %Remaining activity at 1µM NU6300. On the procedure: as §1, §2, §3
In a further assay the target is IRAK4 (Homo sapiens, UniProt Q9NWZ3). Conditions: IRAK4, 1µM; read-out: %Remaining activity at 1µM NU6300. The procedure: as §1, §2, §3
The target in another assay is MAPKAP-K3 (Homo sapiens, UniProt Q16644). Conditions: MAPKAP-K3, 1µM; read-out: %Remaining activity at 1µM NU6300. The procedure: as §1, §2, §3
A further assay concerns the target IGF-1R (Homo sapiens, UniProt P08069). Conditions: read-out: %Remaining activity at 1µM NU6300. On the procedure: as §1, §2, §3
The target in a further assay is JNK1 (Homo sapiens, UniProt P45983). Conditions: JNK1, 1µM; read-out: %Remaining activity at 1µM NU6300. The procedure: as §1, §2, §3
Sequence of JNK1 (P45983 whole entry): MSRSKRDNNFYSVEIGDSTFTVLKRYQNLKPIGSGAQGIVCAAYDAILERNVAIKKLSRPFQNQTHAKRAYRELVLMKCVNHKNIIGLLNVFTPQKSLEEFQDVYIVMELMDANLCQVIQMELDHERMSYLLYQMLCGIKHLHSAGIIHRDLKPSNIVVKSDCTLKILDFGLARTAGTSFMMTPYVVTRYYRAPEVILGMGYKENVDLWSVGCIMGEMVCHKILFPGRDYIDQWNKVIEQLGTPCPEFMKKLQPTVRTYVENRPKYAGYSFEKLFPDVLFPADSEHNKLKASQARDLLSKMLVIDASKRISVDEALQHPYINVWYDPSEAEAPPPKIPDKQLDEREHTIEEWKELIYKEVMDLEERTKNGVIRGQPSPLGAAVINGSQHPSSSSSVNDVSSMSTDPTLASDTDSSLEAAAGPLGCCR
The target of another assay is CSK (Homo sapiens, UniProt P41240). Conditions: read-out: %Remaining activity at 1µM NU6300. On the procedure:
as §1, §2, §3

In another assay the target is EPH-A2 (Homo sapiens, UniProt P29317). Conditions: EPH-A2, 1µM; read-out: %Remaining activity at 1µM NU6300. On the procedure: as §1, §2, §3
The next assay has as its target HIPK3 (Homo sapiens, UniProt Q9H422). Conditions: HIPK3, 1µM; read-out: %Remaining activity at 1µM NU6300. On the procedure: as §1, §2, §3
In another assay the target is Aurora B (Homo sapiens, UniProt Q96GD4). Conditions: read-out: %Remaining activity at 1µM NU6300. On the procedure:
as §1, §2, §3

The target of another assay is MELK (Homo sapiens, UniProt Q14680). Conditions: read-out: %Remaining activity at 1µM NU6300. The procedure: as §1, §2, §3
Sequence of MELK (Q14680 whole entry): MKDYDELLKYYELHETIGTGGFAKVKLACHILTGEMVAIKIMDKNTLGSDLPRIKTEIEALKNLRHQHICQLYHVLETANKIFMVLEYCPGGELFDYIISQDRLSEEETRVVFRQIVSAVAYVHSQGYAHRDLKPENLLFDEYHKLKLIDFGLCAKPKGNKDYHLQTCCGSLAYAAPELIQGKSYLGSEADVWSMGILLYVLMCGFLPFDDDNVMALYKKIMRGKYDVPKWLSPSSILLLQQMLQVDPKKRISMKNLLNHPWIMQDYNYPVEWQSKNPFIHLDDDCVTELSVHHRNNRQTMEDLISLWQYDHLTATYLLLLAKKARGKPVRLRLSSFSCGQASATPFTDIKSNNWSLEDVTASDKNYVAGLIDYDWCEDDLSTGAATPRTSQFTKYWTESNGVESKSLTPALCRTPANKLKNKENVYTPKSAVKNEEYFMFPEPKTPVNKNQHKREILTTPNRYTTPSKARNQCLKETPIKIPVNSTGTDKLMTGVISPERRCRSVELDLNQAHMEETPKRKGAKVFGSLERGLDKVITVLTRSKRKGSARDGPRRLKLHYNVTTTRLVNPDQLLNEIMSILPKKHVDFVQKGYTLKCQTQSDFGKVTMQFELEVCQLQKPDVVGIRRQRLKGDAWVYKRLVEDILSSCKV
Another assay has as its target T1, CHK1 (Homo sapiens, UniProt O14757).
T1 sequence (O14757 1-476): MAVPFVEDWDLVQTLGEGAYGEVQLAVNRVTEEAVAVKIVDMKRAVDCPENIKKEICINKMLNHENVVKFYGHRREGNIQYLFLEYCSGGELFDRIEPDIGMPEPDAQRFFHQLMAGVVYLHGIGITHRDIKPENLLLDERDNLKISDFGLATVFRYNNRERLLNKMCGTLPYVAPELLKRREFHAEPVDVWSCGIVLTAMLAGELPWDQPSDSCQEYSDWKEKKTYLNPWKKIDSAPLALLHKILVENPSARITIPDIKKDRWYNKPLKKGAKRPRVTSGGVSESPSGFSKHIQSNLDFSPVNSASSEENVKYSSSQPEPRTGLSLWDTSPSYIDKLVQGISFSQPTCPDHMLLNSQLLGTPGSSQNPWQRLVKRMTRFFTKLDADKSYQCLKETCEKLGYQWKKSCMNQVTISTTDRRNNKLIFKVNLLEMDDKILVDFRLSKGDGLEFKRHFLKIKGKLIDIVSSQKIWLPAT
Conditions: CHK1, 1µM; read-out: %Remaining activity at 1µM NU6300. On the procedure: as §1, §2, §3

Another assay deals with DDR2 (Homo sapiens, UniProt Q16832). Conditions: DDR2, 1µM; read-out: %Remaining activity at 1µM NU6300. The procedure:
as §1, §2, §3

Another assay deals with IKKb (Homo sapiens, UniProt O14920). Conditions: read-out: %Remaining activity at 1µM NU6300. The procedure:
as §1, §2, §3

The target in another assay is ERK2 (Homo sapiens, UniProt P28482). Conditions: ERK2, 1µM; read-out: %Remaining activity at 1µM NU6300. On the procedure: as §1, §2, §3
The target of a further assay is CHK2 (Homo sapiens, UniProt O96017). Conditions: CHK2, 1µM; read-out: %Remaining activity at 1µM NU6300. On the procedure:
as §1, §2, §3

Another assay deals with EIF2AK3 (Homo sapiens, UniProt Q9NZJ5). Conditions: EIF2AK3, 1µM; read-out: %Remaining activity at 1µM NU6300. On the procedure:
as §1, §2, §3

Usually remaining activity stands for the share of the control activity or signal that is left under treatment.

Molecules are shown by their SMILES.

Sequence of IGF-1R (P08069 31-1367): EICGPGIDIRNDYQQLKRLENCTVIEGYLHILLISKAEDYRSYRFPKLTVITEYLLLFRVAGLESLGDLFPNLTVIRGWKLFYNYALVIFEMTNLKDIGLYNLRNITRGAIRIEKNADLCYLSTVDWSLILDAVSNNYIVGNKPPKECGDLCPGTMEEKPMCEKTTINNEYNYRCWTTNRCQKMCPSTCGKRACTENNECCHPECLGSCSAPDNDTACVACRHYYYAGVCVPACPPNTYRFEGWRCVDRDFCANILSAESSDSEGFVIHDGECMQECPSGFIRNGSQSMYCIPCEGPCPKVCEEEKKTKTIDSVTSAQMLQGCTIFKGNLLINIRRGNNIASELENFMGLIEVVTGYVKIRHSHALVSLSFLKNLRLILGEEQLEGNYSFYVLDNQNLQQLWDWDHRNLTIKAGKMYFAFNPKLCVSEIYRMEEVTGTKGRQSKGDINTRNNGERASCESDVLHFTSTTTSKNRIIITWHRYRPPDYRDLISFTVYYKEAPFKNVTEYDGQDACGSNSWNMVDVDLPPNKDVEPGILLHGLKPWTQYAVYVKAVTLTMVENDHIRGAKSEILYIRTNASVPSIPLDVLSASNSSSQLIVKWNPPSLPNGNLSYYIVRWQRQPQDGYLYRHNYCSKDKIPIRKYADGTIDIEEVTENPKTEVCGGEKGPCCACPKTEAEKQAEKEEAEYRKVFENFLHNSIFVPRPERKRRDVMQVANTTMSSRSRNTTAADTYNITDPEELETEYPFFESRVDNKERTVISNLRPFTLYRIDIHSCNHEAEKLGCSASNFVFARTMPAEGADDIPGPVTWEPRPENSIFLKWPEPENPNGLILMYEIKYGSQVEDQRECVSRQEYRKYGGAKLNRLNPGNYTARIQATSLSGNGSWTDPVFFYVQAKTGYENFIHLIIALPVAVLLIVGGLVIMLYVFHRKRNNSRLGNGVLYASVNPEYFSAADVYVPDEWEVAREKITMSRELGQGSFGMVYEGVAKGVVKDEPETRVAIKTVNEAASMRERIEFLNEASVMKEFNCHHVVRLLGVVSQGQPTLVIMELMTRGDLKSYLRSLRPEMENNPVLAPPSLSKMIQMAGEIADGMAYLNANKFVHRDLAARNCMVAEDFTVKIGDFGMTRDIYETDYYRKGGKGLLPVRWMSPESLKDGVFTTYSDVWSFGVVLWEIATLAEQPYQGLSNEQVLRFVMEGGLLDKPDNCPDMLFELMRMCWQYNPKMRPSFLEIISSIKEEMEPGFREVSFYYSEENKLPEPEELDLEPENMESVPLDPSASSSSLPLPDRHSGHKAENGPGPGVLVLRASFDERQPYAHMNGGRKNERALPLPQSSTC
Sequence of CSK (P41240 whole entry): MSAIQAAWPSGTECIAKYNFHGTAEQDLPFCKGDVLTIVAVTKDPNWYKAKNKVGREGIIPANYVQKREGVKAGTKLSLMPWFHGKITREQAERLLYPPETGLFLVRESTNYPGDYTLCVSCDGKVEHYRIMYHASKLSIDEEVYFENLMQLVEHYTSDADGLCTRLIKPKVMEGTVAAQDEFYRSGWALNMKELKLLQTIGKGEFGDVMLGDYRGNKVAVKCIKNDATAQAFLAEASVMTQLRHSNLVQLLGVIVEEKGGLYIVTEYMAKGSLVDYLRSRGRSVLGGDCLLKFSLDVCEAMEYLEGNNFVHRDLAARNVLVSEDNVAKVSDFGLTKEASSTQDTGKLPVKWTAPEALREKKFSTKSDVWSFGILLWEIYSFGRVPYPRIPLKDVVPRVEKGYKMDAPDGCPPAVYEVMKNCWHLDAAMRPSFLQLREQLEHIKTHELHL
Sequence of GCK (Q12851 whole entry): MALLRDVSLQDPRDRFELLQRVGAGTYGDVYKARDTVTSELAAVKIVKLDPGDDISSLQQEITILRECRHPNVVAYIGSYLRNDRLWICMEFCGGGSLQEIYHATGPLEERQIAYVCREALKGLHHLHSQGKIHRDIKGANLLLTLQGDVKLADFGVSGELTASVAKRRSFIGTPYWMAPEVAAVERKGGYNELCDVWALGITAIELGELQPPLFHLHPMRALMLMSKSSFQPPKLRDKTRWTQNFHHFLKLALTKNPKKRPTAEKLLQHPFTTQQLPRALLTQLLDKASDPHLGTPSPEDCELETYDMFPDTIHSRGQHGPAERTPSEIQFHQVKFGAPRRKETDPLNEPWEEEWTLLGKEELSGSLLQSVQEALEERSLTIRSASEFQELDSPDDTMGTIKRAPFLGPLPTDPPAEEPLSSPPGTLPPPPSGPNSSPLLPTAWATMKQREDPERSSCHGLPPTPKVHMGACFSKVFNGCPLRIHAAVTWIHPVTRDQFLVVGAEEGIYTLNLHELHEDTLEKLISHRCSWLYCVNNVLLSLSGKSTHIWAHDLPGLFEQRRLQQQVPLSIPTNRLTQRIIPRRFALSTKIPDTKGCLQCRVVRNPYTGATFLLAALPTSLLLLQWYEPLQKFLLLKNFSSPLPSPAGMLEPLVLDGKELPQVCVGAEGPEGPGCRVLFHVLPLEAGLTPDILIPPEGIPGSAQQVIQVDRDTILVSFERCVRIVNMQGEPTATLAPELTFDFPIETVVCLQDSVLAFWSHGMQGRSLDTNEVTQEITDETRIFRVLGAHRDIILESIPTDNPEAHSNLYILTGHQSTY

Consider `C=CS(=O)(=O)c1ccc(Nc2nc(OCC3CCCCC3)c3nc[nH]c3n2)cc1` [NU6300, 6-(cyclohexylmethoxy)-N-(4-(vinylsulfonyl)phenyl)-9H-purin-2-amine], for which the remaining activity at 1 µM on MLK1 is 8%; at EF2K, 69%; on GCK it was 26%; at MKK1, 58%; on CAMK1, 89%; on LKB1, 59%. Further, the remaining activity at 1 µM at IKKe turned out to be 68%; on IRAK4, 78%; at MAPKAP-K3 it was 88%; on IGF-1R, 79%; at JNK1, 60%; at CSK, 82%. Further, the remaining activity at 1 µM stood at 91% at EPH-A2; 96% at HIPK3; 26% at Aurora B; 55% at MELK; 38% on CHK1; 60% at DDR2. Moreover, the remaining activity at 1 µM at IKKb was 84%; at ERK2 it was 73%; at CHK2, 39%; at EIF2AK3 it was 83%. Besides, the “%Remaining activity at 1µM NU6300” value with AMPK came to 47%.
